# Experimental data as given in US20220249590A1, “EFFICACY OF GARLIC THERAPY IN CONTROLLING INFLAMMATORY CYTOKINES AND CARTILAGE DEGRADATION IN KNEE OSTEOARTHRITIS AND IMPROVING QUALITY OF LIFE” (priority 2021, published 2022).
# How the values were obtained:
# [1] = tested on: knee osteoarthritis patients; test: Study II: garlic versus glucosamine sulphate, clinical manifestations; assay type: in vivo, human
# Procedure: In the second study, I had compared the effect of garlic versus glucosamine on cartilage degeneration in knee osteoarthritis patients. I have chosen glucosamine sulfate to be the comparing drug due to its well known chondroprotective properties and it has been in the market for a while to control the symptoms of knee osteoarthritis.
# (§1) Garlic group receive 900 mg of garlic capsules daily for 8 weeks. The glucosamine group received 1500 mg glucosamine sulfate daily for 8 weeks. As regard baseline affection of knee in both groups. The garlic group has bilateral knee OA in 100% of patients and significant knee deformity compared to glucosamine group who were having only Bilateral knee affection in 70% of patients.
# [2] = tested on: collagenase; test: Study II: level of collagenase; assay type: in vivo, human; conditions: garlic capsules 900 mg daily or glucosamine sulfate 1500 mg daily, 8 weeks; no difference between the groups
# Procedure: as §1
# [3] = tested on: MMP13; test: Study II: level of MMP13; assay type: in vivo, human; conditions: garlic capsules 900 mg daily or glucosamine sulfate 1500 mg daily, 8 weeks; no difference between the groups
# Procedure: as §1
# [4] = tested on: glutathione peroxidase; test: Study II: level of glutathione peroxidase; assay type: in vivo, human; conditions: garlic capsules 900 mg daily or glucosamine sulfate 1500 mg daily, 8 weeks; no difference between the groups
# Procedure: as §1
# [5] = tested on: glutathione peroxidase; conditions: mice, after intake of diet rich in selenium; cited from earlier work
# [6] = tested on: adjuvant arthritis; conditions: adjuvant arthritis in rats; cited from earlier work
# [7] = tested on: rheumatoid arthritis patients; conditions: selenium intake; cited from earlier work
# [8] = tested on: mice knee osteoarthritis; conditions: after intake of diet rich in selenium; cited from earlier work
# [9] = tested on: lupus mice; conditions: cited from earlier work
SMILES,"body mass index, mean percent change ([1]; end of study, glucosamine group vs garlic group)","pain score ([1]; garlic capsules 900 mg daily or glucosamine sulfate 1500 mg daily, 8 weeks)","body mass index ([1]; garlic capsules 900 mg daily or glucosamine sulfate 1500 mg daily, 8 weeks, end of study vs baseline)",level of collagenase [2],level of MMP13 [3],level of glutathione peroxidase [4],expression of glutathione peroxidase in synovium [5],indices of inflammation [6],"pain, swollen and tender joints numbers [7]",mice knee osteoarthritis [8],indices of inflammation [9]
N[C@H]1C(O)O[C@H](CO)[C@@H](O)[C@@H]1O.O=S(=O)(O)O (some centres unmarked) [glucosamine sulfate],higher mean percent change than garlic group,significantly improved in both groups with no difference between groups,did not significantly change,significant reduction,significant reduction,significant reduction,–,–,–,–,–
[Se] [selenium],–,–,–,–,–,–,increased expression,improved indices of inflammation,reduction,significant reduction,improved indices of inflammation
